Columns and labels:
[1] = system: 4T1 hPD-L1 cells; experiment: Pharmacodynamic study on mouse breast cancer 4T1 hPD-L1 model, subcutaneous (Example 1, capecitabine combination); format: in vivo, BALB/c mice; settings: Compound of Formula I 120 mg/kg p.o. BID, Capecitabine 100 mg/kg p.o. QD; for TGI (%)/Day 21: Day 21 vs vehicle control; for Tumor Volume at the Beginning of the Experiment/Day 0: baseline on day of grouping
Experimental: Experimental animals: 100 BALB/c mice, female, 6 to 8 weeks old, weighing 18 to 21 g, purchased from Shanghai Jihui Laboratory Animal Care Co., Ltd. (SCXK (Shanghai) 2020-0009; Certificate No.: 20220009001922).
Drugs: Compound of Formula I [drawing 4] manufacturer: Pharmaron (Tianjin) Process Development and Manufacturing Co., Ltd., batch number: TJ-MAX-10181-A-2; Capecitabine, manufacturer: Shanghai Yuanye Bio-Technology Co., Ltd., batch number: J10J12L137020.
(§1) Murine 4T1 hPD-L1 cells were grown adherently in vitro under culture conditions of RPMI-1640 medium supplemented with 10% heat-inactivated fetal bovine serum and 4 µg/mL Blasticidin (Beyotime/ST018-1mL), at 37°C with 5% CO2. Cells were passaged 2 to 3 times per week. When cells were in the exponential growth phase, the cells were harvested, counted, and inoculated subcutaneously on the right dorsal side of BALB/c mice.
100 µL of 1 × 10^6 4T1 hPD-L1 cell suspension was inoculated subcutaneously on the right dorsal side of BALB/c mice. On the 6th day after inoculation, suitable animals were selected based on tumor volume and body weight, and stratified randomization was used to divide them into 4 groups, with 10 mice per group. Administration began on the day of grouping. Table 1: Animal Experiment Grouping and Administration Regimen
(§2) The experimental indicators were examined to determine whether tumor growth could be inhibited, delayed, or cured. Tumors were measured three times per week using a digital vernier caliper. The tumor volume was calculated using the formula: V = 0.5a × b^2, where a and b represent the long and short diameters of the tumor, respectively. The tumor growth inhibition efficacy of compounds was calculated as: TGI (%) = [1 - (TVi - TV0) / (TVVi - TVV0)] × 100% (where TV0 represents the mean volume of the treatment group on day 0, TVV0 represents the mean volume of the control group on day 0; TVi represents the mean volume of the treatment group on day i, and TVVi represents the mean volume of the control group on day i).
(§3) If the animals' health condition continued to deteriorate, or the tumor volume exceeded 2,000 mm^3, or severe illness or pain occurred, euthanasia was required. In the following circumstances, the veterinarian was notified and euthanasia was performed: • (1) Significant emaciation with body weight loss exceeding 20%; • (2) Inability to freely access food and water; • (3) The experiment was terminated when the average tumor volume in the control group reached 2000 mm^3.
(§4) GraphPad Prism 8.0 software was used for plotting. Changes in tumor volume in mice were analyzed by Two-way ANOVA and compared with the vehicle control group using Dunnett's method, with P < 0.05 considered statistically significant.

[2] = system: 4T1 hPD-L1 cells; experiment: Pharmacodynamic study on mouse breast cancer 4T1 hPD-L1 model, subcutaneous (Example 2, celecoxib combination); format: in vivo, BALB/c mice; settings: Compound of Formula I 120 mg/kg p.o. BID, Celecoxib 60 mg/kg p.o. BID; for TGI (%)/Day 21: Day 21 vs vehicle control; for Tumor Volume at the End of the Experiment/Day 21 / Tumor Volume at the Beginning of the Experiment/Day 0 / Body Weight of Animals at the Beginning of the Experiment / Body Weight of Animals at the End of the Experiment / Relative Body Weight Change of Animals at the End of the Experiment: mean; for Tumor Volume at the End of the Experiment/Day 21 / Tumor Volume at the Beginning of the Experiment/Day 0: n=10; for Tumor Volume at the Beginning of the Experiment/Day 0: baseline on day of grouping; for Body Weight of Animals at the Beginning of the Experiment: baseline
Experimental: Experimental animals: 100 BALB/c mice, female, 6 to 8 weeks old, weighing 18 to 21 g, purchased from: Shanghai Jihui Laboratory Animal Care Co., Ltd. (SCXK (Shanghai) 2020-0009; Certificate No.: 20220009001922).
Drugs: Compound of Formula I, manufacturer: Pharmaron (Tianjin) Process Development and Manufacturing Co., Ltd., batch number: TJ-MAX-10181-A-2; Celecoxib, manufacturer: Shanghai Yuanye Bio-Technology Co., Ltd., batch number: D11A6S2152.
as §1
100 µL of 1 × 10^6 4T1 hPD-L1 cell suspension was inoculated subcutaneously on the right dorsal side of BALB/c mice. On the seventh day after inoculation, stratified randomization was used to divide into 4 groups (10 mice per group) based on tumor volume and body weight. Administration began on the day of grouping. Table 5: Animal Experiment Grouping and Administration Regimen
as §2, §3, §4

[3] = system: 4T1 cells; experiment: Orthotopic 4T1 breast cancer model with tumor resection, survival study (Example 3, paclitaxel combination); format: in vivo, BALB/c mice; settings: day 38; Compound of Formula I 60 mg/kg PO BID; Paclitaxel 6 mg/kg IP Q2D; orthotopic tumors resected 13 days after inoculation; n=10
Experimental: Experimental animals: 50 BALB/c mice, female, 6 to 8 weeks old, weighing 18 to 20 g. Zhejiang Vital River Laboratory Animal Technology Co., Ltd., Tongxiang Branch (SCKX (Zhejiang) 2021-0006); Certificate No.: 20220728Abzz0600000694.
Drugs: Compound of Formula I, manufacturer: Pharmaron (Tianjin) Process Development and Manufacturing Co., Ltd., batch number: TJ-MAX-10181-A-2; Paclitaxel (6 mg/mL), manufacturer: Corden Pharma Latina S.P.A., batch number: 2D07013.
as §1, with “4T1” for “4T1 hPD-L1”, “serum” for “serum and 4 µg/mL Blasticidin (Beyotime/ST018-1mL),”, “When the” for “When”, “into the fourth fat pad” for “subcutaneously”, “left abdomen” for “right dorsal side”
50 µL of 1 × 10^5 4T1 cell suspension was inoculated into the fourth fat pad on the left abdomen of BALB/c mice. […]
The experimental indicators were examined to determine whether tumor growth could be inhibited, delayed, or cured. Tumors were measured three times per week using a digital vernier caliper. The tumor volume was calculated using the formula: V = 0.5a × b^2, where a and b represent the long and short diameters of the tumor, respectively. […]

[4] = system: GL-261-luc cells; experiment: Mouse glioma GL-261-luc brain orthotopic xenograft tumor model, pharmacodynamics and survival (Example 4, temozolomide combination); format: in vivo, C57 BL/6 mice; settings: Compound of Formula I 120 mg/kg PO BID, TMZ 7.5 mg/kg IP BIW; for TGI (%)/Day 14: Day 14, based on fluorescence signal intensity vs vehicle control; for Total Fluorescence Intensity at the Beginning of the Experiment/Day 0: baseline Day 0; for mice showed > 10% body weight loss: by day 14 of administration, 9 mice per group; for Body Weight of Animals at the End of the Experiment / Relative Body Weight Change of Animals at the End of the Experiment / Body Weight of Animals at the Beginning of the Experiment: mean, n=9; for Body Weight of Animals at the Beginning of the Experiment: baseline; for increase in life span (ILS): median survival vs vehicle control, end of experiment
Experimental: Experimental animals: 57 C57 BL/6 mice, female, 6 to 8 weeks old, weighing 16 to 20 g, purchased from Shanghai Jihui Laboratory Animal Care Co., Ltd.
Drugs: Compound of Formula I [drawing 5] manufacturer: Pharmaron (Tianjin) Process Development and Manufacturing Co., Ltd., batch number: TJ-MAX-10181-A-2; TMZ (Temozolomide), manufacturer: Shanghai Aladdin Biochemical Technology Co., Ltd., batch number: J2227749.
Murine GL-261-luc cells were grown adherently in vitro under culture conditions of DMEM medium supplemented with 10% heat-inactivated fetal bovine serum and 0.6 mg/mL G418 (stock concentration: 100 mg/mL), at 37°C with 5% CO2. Cells were passaged 2 to 3 times per week. When cells were in the exponential growth phase, the cells were harvested, counted, and inoculated into the right caudate nucleus of C57 BL/6 mice.
GL-261-luc cells in logarithmic growth phase were harvested at full confluence with viability guaranteed 90% or more. Mice were anesthetized via intraperitoneal injection of 41.6 mg/kg Zoletil according to body weight. 1 × 10^5/2 µL/mouse cells was orthotopically inoculated into the right caudate nucleus of each mouse, and the skin was sutured with 4/0 suture. After recovery, mice were returned to their cages. 4 days after inoculation, mice were imaged and grouped using the IVIS Lumina XR small animal imager. Fluorescence signal intensity was used for stratified randomization into 4 groups (9 mice per group). Administration began on the day of grouping, with daily weight monitoring and observation of mouse growth status. Mice were imaged twice weekly. Table 11: Animal Experiment Grouping and Administration Regimen
The experimental indicators were examined to determine whether tumor growth could be inhibited, delayed, or cured. According to the experimental design, tumor growth was monitored by imaging mice using the IVIS Lumina XR small animal imager. The tumor growth inhibition efficacy of the compounds was evaluated using TGI (Tumor Growth Inhibition), where TGI (%) = [1 - (TFtreatment-Dn - TFtreatment-D0) / (TFcontrol-Dn - TFcontrol-D0)] × 100% (where TFtreatment-D0 represents the fluorescence signal intensity of the treatment group on day 0, TFcontrol-D0 represents the fluorescence signal intensity of the control group on day 0; TFtreatment-Dn represents the fluorescence signal intensity of the treatment group on day n, and TFcontrol-Dn represents the fluorescence signal intensity of the control group on day n). The calculation formula for an increase in life span (ILS) is: ILS = (MSTTreatment - MSTControl) / MSTControl × 100% (where MSTTreatment is the median survival days for the treatment group, and MSTControl is the median survival days for the control group).
Tumor size was analyzed using the statistical software GraphPad Prism based on fluorescence signal intensity values. Two-way ANOVA was used to compare whether there were significant differences in fluorescence signal intensity between the control group and each treatment group, with p < 0.05 considered statistically significant and p < 0.01 considered highly statistically significant.

## CCCCCOC(=O)Nc1nc(=O)n([C@@H]2O[C@H](C)[C@@H](O)[C@H]2O)cc1F [Capecitabine]
[1]
  TGI (%)/Day 21: 56.16%
[1]; mean, n=10
  Tumor Volume at the Beginning of the Experiment/Day 0: 125.17 mm^3

## Cc1ccc(-c2cc(C(F)(F)F)nn2-c2ccc(S(N)(=O)=O)cc2)cc1 [Celecoxib]
[2]
  TGI (%)/Day 21: 83.90%
  Tumor Volume at the End of the Experiment/Day 21: 341.70 mm^3
  Tumor Volume at the Beginning of the Experiment/Day 0: 159.34 mm^3
  Body Weight of Animals at the Beginning of the Experiment: 22.68 g
  Body Weight of Animals at the End of the Experiment: 23.68 g
  Relative Body Weight Change of Animals at the End of the Experiment: 4.48%

## Cc1c(/C=C/c2cc(CN[C@@](C)(CO)C(=O)O)ccc2C(F)(F)F)cccc1-c1ccccc1 [Compound of Formula I]
[3]
  survival rate of mice: 0%
[4]
  TGI (%)/Day 14: 40.52%
  Total Fluorescence Intensity at the End of the Experiment/Day 14: 1.18E + 09 p/s
  Total Fluorescence Intensity at the Beginning of the Experiment/Day 0: 2.75E + 07 p/s
  mice showed > 10% body weight loss: 2 mice
  Body Weight of Animals at the End of the Experiment: 18.29 g
  Relative Body Weight Change of Animals at the End of the Experiment: -3.08%
  Body Weight of Animals at the Beginning of the Experiment: 18.89 g
  increase in life span (ILS): 20%
[1]
  TGI (%)/Day 21: 41.88%
[1]; mean, n=10, Day 21
  Tumor Volume at the End of the Experiment/Day 21: 1103.30 mm^3
[1]; mean, n=10
  Tumor Volume at the Beginning of the Experiment/Day 0: 125.52 mm^3
[1]; mean, baseline
  Body Weight of Animals at the Beginning of the Experiment: 24.20 g
[2]
  TGI (%)/Day 21: 32.78%
  Tumor Volume at the End of the Experiment/Day 21: 921.91 mm^3
  Tumor Volume at the Beginning of the Experiment/Day 0: 160.33 mm^3
  Body Weight of Animals at the Beginning of the Experiment: 23.04 g
  Body Weight of Animals at the End of the Experiment: 24.85 g
  Relative Body Weight Change of Animals at the End of the Experiment: 8.01%

## CC(=O)O[C@H]1C(=O)[C@@]2(C)[C@H]([C@H](OC(=O)c3ccccc3)[C@]3(O)C[C@H](OC(=O)[C@H](O)[C@@H](NC(=O)c4ccccc4)c4ccccc4)C(C)=C1C3(C)C)[C@]1(OC(C)=O)CO[C@@H]1C[C@@H]2O [Paclitaxel]
[3]
  survival rate of mice: 10%

## Cn1nnc2c(C(N)=O)ncn2c1=O [TMZ, Temozolomide]
[4]
  TGI (%)/Day 14: 35.51%
  Total Fluorescence Intensity at the End of the Experiment/Day 14: 1.27E + 09 p/s
  Total Fluorescence Intensity at the Beginning of the Experiment/Day 0: 2.76E + 07 p/s
  mice showed > 10% body weight loss: 2 mice
  Body Weight of Animals at the End of the Experiment: 19.40 g
  Relative Body Weight Change of Animals at the End of the Experiment: -0.63%
  Body Weight of Animals at the Beginning of the Experiment: 19.51 g
  increase in life span (ILS): 25%

— EP4736876A1, “DRUG COMBINATION CONTAINING PD-L1 SMALL MOLECULE INHIBITOR AND USE THEREOF” (Beijing Maxinovel Pharmaceuticals Co., Ltd., priority 2023, dated 2025)
